Results: patent publication US20250144177A1 (Katholieke Universiteit Leuven, priority 2022, published 2025)
Non-standard residues stand in square brackets, D forms with d. Residues, ends and D or L forms follow the SMILES beside them. No end group written: not given here. Orn = NCCC[C@H](N)C(=O)O

Assays:
cathepsin G [1] = target: T1, cathepsin G (Homo sapiens, UniProt P08311); assay: Resistance to proteolytic degradation by cathepsin G (nano-LC/MS); type: in vitro ADME; details: peptide 50 ng/ml, 37° C., cathepsin G 13 mU/litre, pH 7.4
T1 sequence (P08311 21-244): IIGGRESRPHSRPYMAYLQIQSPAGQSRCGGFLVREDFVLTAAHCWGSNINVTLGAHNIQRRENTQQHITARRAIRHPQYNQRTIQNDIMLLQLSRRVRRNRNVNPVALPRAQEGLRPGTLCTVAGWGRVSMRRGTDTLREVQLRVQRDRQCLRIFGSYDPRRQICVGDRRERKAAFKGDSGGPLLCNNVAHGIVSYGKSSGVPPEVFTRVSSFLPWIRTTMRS
From the text: (§1) The following peptides were compared for resistance against proteolytic degradation: CXCL9 (74-103) with L-amino acids (=L-amino acid peptide); CXCL9 (74-103) with D-amino acids (=D-amino acid peptide) and Acetyl-OOOQONGOOHQOOOQQOVROSQRORQOOTT [SEQ ID NO:2] This is a peptide derived from CXCL9 (74-103) with an acetyl-group on the N-terminus, lysines replaced by ornithine and VL (at positions 88 and 89) replaced by QQ and serine (at position 97) also replaced by ornithine (=ornithine peptide).
(§2) Incubations were performed with peptides at 50 ng/ml and 37° C. for 5 minutes up to 24 hours with trypsin, plasmin or cathepsin G. After the incubation, the reaction was stopped through addition of trifluoroacetic acid (to reach a final pH<4) and purified by nano-LC with on-line detection of eluted peptides by mass spectrometry.
(§3) Sample buffer for incubations with plasmin: 50 mM Tris-HCl 0.5 M NaCl PH 7.4; final plasmin conc. 50 μg/ml Sample buffer for incubations with cathepsin G: 20 mM Tris-HCl+1 mM CaCl2 pH 7.4; final conc. Cathepsin G at 13 mU/litre.

plasmin [2] = target: plasmin (Homo sapiens, UniProt P00747); assay: Resistance to proteolytic degradation by plasmin (nano-LC/MS); type: in vitro ADME; details: peptide 50 ng/ml, 37° C., plasmin 50 μg/ml, pH 7.4
From the text: as §1, §2, §3

[3] = Resistance to proteolytic degradation by cathepsin G (nano-LC/MS); type: in vitro ADME; details: cathepsin G (isolated protease); peptide 50 ng/ml, 37° C., cathepsin G 13 mU/litre, pH 7.4; after 4 h; read-out: degraded with cathepsin G
From the text: as §1, §2, §3

[4] = Resistance to proteolytic degradation by plasmin (nano-LC/MS); type: in vitro ADME; details: isolated enzyme plasmin; peptide 50 ng/ml, 37° C., plasmin 50 μg/ml, pH 7.4; after 4 h incubation; read-out: degraded with plasmin
From the text: as §1, §2, §3

trypsin = assay: 100 mM Tris-HCl pH 8.5; final trypsin (from Sigma) conc. 250 ng/ml; details: 37° C., up to 24 hours
plasmin [5] = assay: 50 mM Tris-HCl 0.5 M NaCl PH 7.4; final plasmin conc. 50 μg/ml; details: 37° C., up to 24 hours
cathepsin G [6] = assay: 20 mM Tris-HCl+1 mM CaCl2 pH 7.4; final conc. Cathepsin G at 13 mU/litre; details: 37° C., up to 24 hours
K. pneumonia = details: preventive treatment / pre-treatment; cited from earlier work

Chain of plasmin (Homo sapiens, UniProt P00747) (P00747 581-810 limits assumed, species assumed): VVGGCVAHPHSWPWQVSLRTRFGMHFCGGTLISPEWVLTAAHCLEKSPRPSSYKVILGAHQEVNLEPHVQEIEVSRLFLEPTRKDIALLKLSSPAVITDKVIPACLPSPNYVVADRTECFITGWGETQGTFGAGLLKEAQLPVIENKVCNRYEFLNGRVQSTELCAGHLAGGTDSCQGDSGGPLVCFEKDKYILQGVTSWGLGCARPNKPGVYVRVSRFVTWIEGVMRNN
Chain of plasmin (Homo sapiens, UniProt P00747) (P00747 97-580 partner limits assumed, species assumed): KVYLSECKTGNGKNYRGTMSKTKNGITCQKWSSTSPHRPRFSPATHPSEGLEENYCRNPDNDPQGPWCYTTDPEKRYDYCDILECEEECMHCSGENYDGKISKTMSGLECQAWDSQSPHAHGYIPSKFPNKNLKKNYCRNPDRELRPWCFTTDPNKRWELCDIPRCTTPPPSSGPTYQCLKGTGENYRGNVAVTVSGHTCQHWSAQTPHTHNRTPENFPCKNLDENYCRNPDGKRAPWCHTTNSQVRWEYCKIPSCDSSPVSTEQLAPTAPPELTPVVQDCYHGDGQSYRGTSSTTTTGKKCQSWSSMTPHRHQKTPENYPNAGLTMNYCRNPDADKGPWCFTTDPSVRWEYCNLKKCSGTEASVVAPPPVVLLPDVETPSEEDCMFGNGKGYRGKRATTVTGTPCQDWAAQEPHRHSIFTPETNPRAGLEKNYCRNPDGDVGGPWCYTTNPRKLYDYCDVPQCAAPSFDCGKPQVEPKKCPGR

With CC(C)C[C@@H](NC(=O)[C@H](NC(=O)[C@@H](CCCCN)NC(=O)[C@@H](CCCCN)NC(=O)[C@@H](CCCCN)NC(=O)[C@@H](CCC(N)=O)NC(=O)[C@@H](Cc1c[nH]cn1)NC(=O)[C@@H](CCCCN)NC(=O)[C@@H](CCCCN)NC(=O)CNC(=O)[C@@H](CC(N)=O)NC(=O)[C@@H](CCCCN)NC(=O)[C@@H](CCC(N)=O)NC(=O)[C@@H](CCCCN)NC(=O)[C@@H](CCCCN)NC(=O)[C@H](N)CCCCN)C(C)C)C(=O)N[C@H](CCCCN)C(=O)N[C@@H](C(=O)N[C@H](CCCNC(=N)N)C(=O)N[C@H](CCCCN)C(=O)N[C@H](CO)C(=O)N[C@H](CCC(N)=O)C(=O)N[C@H](CCCNC(=N)N)C(=O)N[C@H](CO)C(=O)N[C@H](CCCNC(=N)N)C(=O)N[C@H](CCC(N)=O)C(=O)N[C@H](CCCCN)C(=O)N[C@H](CCCCN)C(=O)N[C@@H](C(=O)N[C@@H](C(=O)O)[C@H](C)O)[C@H](C)O)C(C)C [D-amino acid peptide] (H-[dK][dK][dK][dQ][dK][dN]G[dK][dK][dH][dQ][dK][dK][dK][dV][dL][dK][dV][dR][dK][dS][dQ][dR][dS][dR][dQ][dK][dK][dT][dT]-OH; N-terminus and C-terminus assumed) the metabolised at 24 h, 50 ng/ml (cathepsin G [1]; cathepsin G (isolated protease), after 24 h) was 68%, the “degradation with cathepsin G” value (cathepsin G [1]; up to 8 h) was “less than 5%” and the resistance to plasmin (plasmin [2]; between 5 min and 8 hours) was “resistant”.

With “KKKQKNGKKHQKKKVLKVRKSQRSRQKKTT [CXCL9 (74-103)]” the metabolised at 4 h, 50 ng/ml [3] was over 90%, the “stability to cathepsin G” value (cathepsin G [1]; up to 2 h) was “stable” and the degradation with plasmin (plasmin [2]; after 5 min) was “partial degraded”. For the same molecule, the degradation with plasmin (plasmin [2]; after 30 minutes) was “fully degradation”.

In the case of CC(=O)N[C@@H](CCCN)C(=O)N[C@@H](CCCN)C(=O)N[C@@H](CCCN)C(=O)N[C@@H](CCC(N)=O)C(=O)N[C@@H](CCCN)C(=O)N[C@@H](CC(N)=O)C(=O)NCC(=O)N[C@@H](CCCN)C(=O)N[C@@H](CCCN)C(=O)N[C@@H](Cc1c[nH]cn1)C(=O)N[C@@H](CCC(N)=O)C(=O)N[C@@H](CCCN)C(=O)N[C@@H](CCCN)C(=O)N[C@@H](CCCN)C(=O)N[C@@H](CCC(N)=O)C(=O)N[C@@H](CCC(N)=O)C(=O)N[C@@H](CCCN)C(=O)N[C@H](C(=O)N[C@@H](CCCNC(=N)N)C(=O)N[C@@H](CCCN)C(=O)N[C@@H](CO)C(=O)N[C@@H](CCC(N)=O)C(=O)N[C@@H](CCCNC(=N)N)C(=O)N[C@@H](CCCN)C(=O)N[C@@H](CCCNC(=N)N)C(=O)N[C@@H](CCC(N)=O)C(=O)N[C@@H](CCCN)C(=O)N[C@@H](CCCN)C(=O)N[C@H](C(=O)N[C@H](C(=O)O)[C@@H](C)O)[C@@H](C)O)C(C)C [Ornithine peptide, Acetyl-OOOQONGOOHQOOOQQOVROSQRORQOOTT] (Ac-[Orn][Orn][Orn]Q[Orn]NG[Orn][Orn]HQ[Orn][Orn][Orn]QQ[Orn]VR[Orn]SQR[Orn]RQ[Orn][Orn]TT-OH; C-terminus assumed), the “cleavage with cathepsin G” value (cathepsin G [1]; 5 min up to 4 h incubation) is reported as “no cleavage”, the metabolised at 4 h [4] is reported as over 70% and the “cleavage after arginine with plasmin” value (plasmin [2]; after 5 min) is reported as under 10%.

In the case of CXCL9 (74-103) with D-amino acids, the not cleaved (trypsin) is reported as “fully resistant to trypsin at incubations from 5 min. up to 4 hours” and the not cleaved (plasmin [5]) is reported as “resistant to plasmin at incubations between 5 min and 8 hours”.

For Acetyl-OOOQONGOOHQOOOQQOVROSQRORQOOTT, the not cleaved (cathepsin G [6]) was “no cleavage with cathepsin G after 5 min up to 4 h incubation”.

B1: VAP-1/SSAO: an endothelial bound adhesion molecule with amine oxidase activity involved in neutrophil egress from the microvasculature (protein, UniProt Q16853 1-763, looked up)
Amine oxidase …: MNQKTILVLLILAVITIFALVCVLLVGRGGDGGEPSQLPHCPSVSPSAQPWTHPGQSQLFADLSREELTAVMRFLTQRLGPGLVDAAQARPSDNCVFSVELQLPPKAAALAHLDRGSPPPAREALAIVFFGRQPQPNVSELVVGPLPHPSYMRDVTVERHGGPLPYHRRPVLFQEYLDIDQMIFNRELPQASGLLHHCCFYKHRGRNLVTMTTAPRGLQSGDRATWFGLYYNISGAGFFLHHVGLELLVNHKALDPARWTIQKVFYQGRYYDSLAQLEAQFEAGLVNVVLIPDNGTGGSWSLKSPVPPGPAPPLQFYPQGPRFSVQGSRVASSLWTFSFGLGAFSGPRIFDVRFQGERLVYEISLQEALAIYGGNSPAAMTTRYVDGGFGMGKYTTPLTRGVDCPYLATYVDWHFLLESQAPKTIRDAFCVFEQNQGLPLRRHHSDLYSHYFGGLAETVLVVRSMSTLLNYDYVWDTVFHPSGAIEIRFYATGYISSAFLFGATGKYGNQVSEHTLGTVHTHSAHFKVDLDVAGLENWVWAEDMVFVPMAVPWSPEHQLQRLQVTRKLLEMEEQAAFLVGSATPRYLYLASNHSNKWGHPRGYRIQMLSFAGEPLPQNSSMARGFSWERYQLAVTQRKEEEPSSSSVFNQNDPWAPTVDFSDFINNETIAGKDLVAWVTAGFLHIPHAEDIPNTVTVGNGVGFFLRPYNFFDEDPSFYSADSIYFRGDQDAGACEVNPLACLPQAAACAPDLPAFSHGGFSHN
In the case of B1, the bacterial load (K. pneumonia) is listed as “increased” and the “neutrophil recruitment / migration” value (K. pneumonia) is listed as “decreased”.
